Where two headings read alike, the source gives them in different places.
What was measured:
Experiment in all cases: microbe, parasite or virus in culture
Assay type in all cases: cell-based, Hepatitis C virus (HCV)
HCV replicon 1AQ30D = conditions: Replicon Assay B
HCV replicon 1B = conditions: Replicon Assay B
HCV replicon 1AY93H = conditions: Replicon Assay A
Outline: (§1)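 HCV RNA levels were calculated from Ct values (minus intercept, divided by slope) of a Neo primer/probe standard curve, with cyclophilin quantified the same way. Cells were seeded at 2000/well and incubated with compound for 3 days in 5% serum and 0.5% DMSO.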

HCV replicon 2B = conditions: Replicon Assay A
Outline: as §1

HCV replicon 1A = conditions: Replicon Assay A
Outline: as §1

[1] = read-out: 1A Q30D IC50, replicon 1AQ30D
[2] = read-out: 1A Y93H IC50, replicon 1AY93H
[3] = Hepatitis C virus, read-out: 1A Y93H IC50 (nM), replicon 1AY93H
[4] = Hepatitis C virus, read-out: 2B IC50 (nM), replicon 2B
[5] = Hepatitis C virus, read-out: 1A Q30D IC50 (nM), replicon 1AQ30D

Row | Compound | IC50 (HCV replicon 1AQ30D; [1]) | IC50 (HCV replicon 1B; replicon 1B) | IC50 (HCV replicon 1AY93H; [2]) | IC50 (HCV replicon 2B; read-out: 2B IC50, replicon 2B) | IC50 (HCV replicon 1A; replicon 1A) | IC50 (HCV replicon 1B; Hepatitis C virus, replicon 1B) | IC50 (HCV replicon 1A; Hepatitis C virus, replicon 1A) | IC50 (HCV replicon 1AQ30D; [5]) | further results
1 | COC(=O)NC(C(=O)N1CCC[C@H]1c1ncc(-c2ccc3c(c2)cc2n3C(c3ccc(C4CC4)s3)Oc3cc(-c4cnc([C@@H]5CCCN5C(=O)[C@@H](NC(=O)OC)C(C)C)[nH]4)cc(F)c3-2)[nH]1)C1CCOC(C)(C)C1 (stereo partly shown) [Compound 219] | 0.034 nM | 3.2 pM | 0.003 nM | 0.005 nM | 2.2 pM |  |  |  | 
2 | COC(=O)NC(C(=O)N1CCC[C@H]1c1ncc(-c2cc(F)c3c(c2)OC(c2ccc(C)s2)n2c-3cc3cc(-c4cnc([C@@H]5CCCN5C(=O)[C@@H](NC(=O)OC)C5CCOCC5)[nH]4)ccc32)[nH]1)C(C)(C)F (single isomer, unassigned) [Compound 106] | 0.03 nM |  |  |  |  | 1.5 pM | 2.1 pM |  | IC50 (HCV replicon 1AY93H; [3]): 0.16 nM; IC50 (HCV replicon 2B; [4]): 0.35 nM
3 | CCc1ccc(C2Oc3cc(-c4cnc([C@@H]5CCCN5C(=O)[C@@H](NC(=O)OC)C(C)C)[nH]4)cc(C)c3-c3cc4cc(-c5cnc([C@@H]6CCCN6C(=O)[C@@H](NC(=O)OC)C6CCOCC6)[nH]5)ccc4n32)s1 (single isomer, unassigned) [Compound 560] |  |  |  |  |  |  |  |  | IC50 (HCV replicon 1AQ30D; Hepatitis C virus, read-out: 1A Q30D IC50, HCV replicon 1A Q30D): 1.56 nM; IC50 (HCV replicon 1B; Hepatitis C virus, HCV replicon 1B): 9.93 pM; IC50 (HCV replicon 1AY93H; Hepatitis C virus, read-out: 1A Y93H IC50, HCV replicon 1A Y93H): 0.13 nM; IC50 (HCV replicon 2B; Hepatitis C virus, read-out: 2B IC50, HCV replicon 2B): 0.0516 nM; IC50 (HCV replicon 1A; Hepatitis C virus, HCV replicon 1A): 7.1 pM
4 | COC(=O)NC(C(=O)N1CCC[C@H]1c1ncc(-c2ccc3c(c2)cc2n3C(c3ccc(CC4CC4)s3)Oc3cc(-c4cnc([C@@H]5CCCN5C(=O)[C@@H](NC(=O)OC)C(C)C)[nH]4)cc(F)c3-2)[nH]1)C1C[C@@H](C)O[C@@H](C)C1 (single isomer, unassigned) [Compound 375] |  |  |  |  |  | 2.6 pM | 1.5 pM | 0.315 nM | IC50 (HCV replicon 1AY93H; [3]): 0.0269 nM; IC50 (HCV replicon 2B; [4]): 0.024 nM
5 | COC(=O)N[C@H](C(=O)N1CCC[C@H]1c1ncc(-c2cc(C)c3c(c2)OC(c2ccc(C4CC4)s2)n2c-3cc3cc(-c4cnc([C@@H]5C[C@H]6C[C@H]6N5C(=O)[C@@H](NC(=O)OC)C5CCOCC5)[nH]4)ccc32)[nH]1)C(C)C (single isomer, unassigned) [Compound 763] |  |  |  |  |  |  |  |  | IC50 (HCV replicon 1AQ30D; read-out: 1A Q30D IC50, HCV replicon 1A Q30D): 2.15 nM; IC50 (HCV replicon 1B; HCV replicon 1B): 2.5 pM; IC50 (HCV replicon 1AY93H; read-out: 1A Y93H IC50, HCV replicon 1A Y93H): 0.12 nM; IC50 (HCV replicon 2B; read-out: 2B IC50, HCV replicon 2B): 0.062 nM; IC50 (HCV replicon 1A; HCV replicon 1A): 2.7 pM
6 | COC(=O)N[C@H](C(=O)N1CCC[C@H]1c1nc(-c2cc(F)c3c(c2)OC(c2ccc(C)s2)n2c-3cc3cc(-c4cnc([C@@H]5CCCN5C(=O)[C@@H](NC(=O)OC)C5CCOCC5)[nH]4)ccc32)c[nH]1)C(C)C (stereo partly shown) [Compound 58] | 0.041 nM |  |  |  |  | 3.4 pM | 1.4 pM |  | IC50 (HCV replicon 1AY93H; [3]): 0.002 nM; IC50 (HCV replicon 2B; [4]): 0.011 nM
7 | CCc1ccc(C2Oc3cc(-c4cnc([C@@H]5CCCN5C(=O)[C@@H](NC(=O)OC)C(C)C)[nH]4)cc(F)c3-c3cc4cc(-c5cnc([C@@H]6CCCN6C(=O)[C@@H](NC(=O)OC)C6CCOCC6)[nH]5)ccc4n32)s1 (single isomer, unassigned) [Compound 337] | 0.0266 nM | 1.6 pM | 0.0021 nM | 0.0039 nM | 1.6 pM |  |  |  | 
8 | COC(=O)NC(C(=O)N1CCC[C@H]1c1ncc(-c2ccc3c(c2)cc2n3C(c3ccc(C4CC4)s3)Oc3cc(-c4cnc([C@@H]5CCCN5C(=O)[C@@H](NC(=O)OC)C(C)C)[nH]4)cc(F)c3-2)[nH]1)C1C[C@H](C)O[C@@H](C)C1 (single isomer, unassigned) [Compound 403] |  |  | 0.0067 nM | 0.007 nM |  | 3.3 pM | 2.5 pM | 0.0703 nM | 
9 | COC(=O)NC(C(=O)N1CCC[C@H]1c1ncc(-c2ccc3c(c2)cc2n3C(c3ccc(C4CC4)s3)Oc3cc(-c4cnc([C@@H]5CCCN5C(=O)[C@@H](NC(=O)OC)C(C)C)[nH]4)cc(F)c3-2)[nH]1)C1CN(C(=O)OC)C1 (single isomer, unassigned) [Compound 226] |  |  | 0.009 nM | 0.025 nM |  | 3.6 pM | 2.6 pM | 0.13 nM | 
10 | COC(=O)N[C@H](C(=O)N1CCC[C@H]1c1ncc(-c2cc(F)c3c(c2)OC(c2ccc(C(C)(C)C)s2)n2c-3cc3cc(-c4cnc([C@@H]5CCCN5C(=O)[C@@H](NC(=O)OC)C(C)C)[nH]4)ccc32)[nH]1)C(C)C (single isomer, unassigned) [Compound 63] |  | 2.4 pM |  |  | 3.2 pM |  |  |  | IC50 (HCV replicon 1AQ30D; replicon 1AQ30D, read-out: 1A Q30D IC50): 0.34 nM; IC50 (HCV replicon 1AY93H; replicon 1AY93H, read-out: 1A Y93H IC50): 0.01 nM; IC50 (HCV replicon 2B; replicon 2B, read-out: 2B IC50): 0.27 nM
11 | COC(=O)N[C@H](C(=O)N1CCC[C@H]1c1ncc(-c2cc(F)c3c(c2)OC(c2ccc(C(C)(C)O)s2)n2c-3cc3cc(-c4cnc([C@@H]5CCCN5C(=O)[C@@H](NC(=O)OC)C(C)C)[nH]4)ccc32)[nH]1)C(C)C (single isomer, unassigned) [Compound 84] |  | 2.5 pM | 0.012 nM | 0.012 nM | 3.3 pM |  |  | 0.5 nM | 

— patent US20160257697A1, “THIOPHENE-SUBSTITUTED TETRACYCLIC COMPOUNDS AND METHODS OFUSE THEREOF FOR THE TREATMENT OF VIRAL DISEASES” (priority 2013, published 2016)
